Data set [1] has as its system SCC-61 and rSCC-61 cell lines. The data set can be described thus: MitoSOX fluorescence ROS assay, with or without SOD blocker. The data set is classed as cell-based, human. As for the experimental part: As a first-line tool to screen KS1 and KS2: SCC-61 has higher intracellular ROS than rSCC-61. MitoSOX is a mitochondrion-targeted dihydroethidium based derivative that primarily detects ROS (superoxide anion) produced within mitochondria. Mitosox assays without any ligands were used as controls. The two cell lines were treated with KS1, KS2 and ascorbate (10.0 μM) and incubated for an hour. MitoSOX (1.0 μM) in phenol red-free DMEM/F12 media was added and incubated for an additional 10 min. The cells were then washed with PBS and imaged in the same media.
In addition to testing KS1 with the MitoSOX assay, we compared our results with no ligand controls and ascorbate as a reference standard. The two cell lines were treated with KS1 and ascorbate (10.0 μM) and incubated for an hour. MitoSOX (1.0 μM) in phenol red-free DMEM/F12 media was added and incubated for an additional 10 min. The cells were then washed with PBS and imaged in the same media. Ligand specificity is commonly determined by pretreating the cells with high concentrations of blockers. Superoxide dismutase (SOD), an enzyme that selectively suppresses accumulation of ROS-superoxide peroxide anions, was added as blocker (1.0 mM) 60 min before the treatment of KS1 (Bielski et al., Chemistry of ascorbic acid radicals. in Ascorbic Acid: Chemistry, Metabolism, and Uses. Chapter. 1982; 4:81-100). Fluorescence was subsequently measured and its intensity was quantified in f.u (fluorescence units).
Ligand specificity is commonly determined by pretreating the cells with high concentrations of blockers. We used superoxide dismutase (SOD), an enzyme that selectively suppresses accumulation of ROS-superoxide peroxide anions (Bielski et al., Chemistry of ascorbic acid radicals. in Ascorbic Acid: Chemistry, Metabolism, and Uses. Chapter 1982, 4, 81-100). The same MitoSOX assay with KS1 and KS2 (10 μM) was performed by pretreating the SCC-61 cells with SOD (1.0 mM) for 60 min.

Data set [2] relates to SCC-61 cell line (HNSCC). In words: MTT cytotoxicity IC50 assay, SCC-61. The data set is classed as cell-based, human. To be noted: Homo sapiens, SCC-61, MTT. As for the experimental part:
The cells were seeded at density 5×10^3 cells/well. After 24 h pre-incubation period, cells were treated with 0.01 mM to 2.0 mM of freshly prepared KS1 and KS2 along with ascorbate (n=3) for 48 h. 0.2% of DMSO served as vehicle control. After 48 h, the solutions were removed from all plates and MTT assays performed following the published protocols. IC50 values are presented as mean±SD from at least three independent experiments.
There is growing evidence for a therapeutic role of ascorbate against several cancers (Creagan et al., Failure of High-Dose Vitamin C (Ascorbic Acid) Therapy to Benefit Patients with Advanced Cancer. New England Journal of Medicine 1979, 301 (13), 687-690; Chen et al., Pharmacologic ascorbic acid concentrations selectively kill cancer cells: action as a pro-drug to deliver hydrogen peroxide to tissues. Proceedings of the National Academy of Sciences of the United States of America 2005, 102 (38), 13604-13609; Prasad et al., High Doses of Multiple Antioxidant Vitamins: Essential Ingredients in Improving the Efficacy of Standard Cancer Therapy. Journal of the American College of Nutrition 1999, 18 (1), 13-25). Pharmacologic doses of ascorbate (oral and/or intravenous) could increase the effectiveness of cancer chemotherapy in many solid cancer therapies (López-Lizaro, Dual role of hydrogen peroxide in cancer: Possible relevance to cancer chemoprevention and therapy. Cancer Letters 2007, 252 (1), 1-8; Li et al., New Developments and Novel Therapeutic Perspectives for Vitamin C. The Journal of Nutrition 2007, 137 (10), 2171-2184; Klimant et al., Intravenous vitamin C in the supportive care of cancer patients: a review and rational approach. Current Oncology 2018, 25 (2), 139-148. The primary objective of this experiment was to determine the cytotoxic effects of KS1 at pharmacological concentrations. Cancer cell lines were selected based on their high ROS implications. […] These cell lines have been studied extensively with ascorbic acid treatments (Schoenfeld et al., O(2)(·−) and H(2)O(2)-Mediated Disruption of Fe Metabolism Causes the Differential Susceptibility of NSCLC and GBM Cancer Cells to Pharmacological Ascorbate. Cancer Cell 2017, 31 (4), 487-500.e8; Chen et al., Modulators of Redox Metabolism in Head and Neck Cancer. Antioxidants & Redox Signaling 2017, 29 (16), 1660-1690; Khandrika et al., Oxidative stress in prostate cancer. Cancer Lett 2009, 282 (2), 125-136.

For data set [3], the system named is SCC-61 tumors. In words: Post-PET biodistribution, SCC-61 tumor-bearing mice. The data set is classed as in vivo. The procedure: Subsequently, post-PET biodistribution was performed in the same SCC-61 or rSCC-61 tumor-bearing mice injected with [^18F]KS1 (FIG. 16). […] High kidney and liver uptake were common with [^18F]radiotracer's distribution at 30 min post-injection.

Data set [4] relates to PC3 tumors. The data set can be described thus: microPET imaging in PC3 tumor-bearing mice. The format is in vivo. The conditions noted are these: ROI analysis.

pIC50: −log10 of the molar value.

Results on two compounds are retold here after US20240261443A1, “COMPOUNDS AND COMPOSITIONS USEFUL AS RADIOTRACERS FOR IMAGING OF REACTIVE OXIDATIVE SPECIES” (Wake Forest University Health Sciences, priority 2019, published 2024).

By pIC50 is commonly meant −log10 of the IC50, conventionally taken in molar units.

As to `O=C1O/C(=C/CCl)C(O)=C1OCc1ccc(OCCF)cc1` [KS1, (E)-5-(2-chloroethylidene)-3-(4-(2-fluoroethoxy)benzyloxy)-4-hydroxyfuran-2(5H)-one], the “MitoSOX fluorescence in SCC-61 compared to rSCC-61 cells” value in data set [1] (10.0 μM, 1 h incubation) was “higher fluorescence”. In data set [1] (Example 4, SCC-61 vs rSCC-61, MitoSOX fluorescence), the “higher selectivity between the two cell lines compared to ascorbate selectivity” value is approximately 10 fold. The “higher differential selectivity between the high- and low-ROS cell lines compared to ascorbate” value in data set [1] (Example 5, SCC-61 vs rSCC-61, MitoSOX fluorescence) is approximately 2.2 fold. In data set [1] (SCC-61 cells, 10 μM, SOD (1.0 mM) pretreatment 60 min), the “fluorescent intensity of KS1-mitoSOX with SOD” value is listed as 1842 f.u. Moreover, the “fluorescent intensity of KS1-mitoSOX” value in data set [1] (SCC-61 cells, 10 μM, without SOD) is 3631 f.u. In data set [1] (SCC-61 cells, SOD (1.0 mM) for 60 min), the “decrease of fluorescent uptake by SOD pretreatment” value is reported as approximately 50%. Also, the pIC50 in data set [2] (Example 7, 48 h) was 3.54; in data set [2] (Example 13), 3.14.

In the case of `O=C1O/C(=C/CCl)C(O)=C1OCc1ccc(OCC[18F])cc1` [[^18F]KS1], the “target (tumor) to non-target (muscle) ratio” value in data set [3] (SCC-61 tumors, post-PET) was 10.93. Also, the “enrichment in SCC-61 tumors over rSCC-61 tumors” value in data set [3] (tumor: muscle ratio) was approximately 2.5 fold. Moreover, in data set [4] (KS1 15 mg/kg 45 min before tracer), the “tumor uptake with nonradioactive KS1 pretreatment, lower than baseline” value is reported as approximately 3 fold. For the same compound, in data set [4] (baseline), the “tumor uptake on mPET scans” value is “high tumor uptake”.
